From US6399568B1, “Cyclic tetrapeptide derivatives and medicinal use thereof” (Japan Energy Corporation, priority 1997, dated 2002) come the findings set out here.

Non-standard residues stand in square brackets, D forms with d. Residues, ends and D or L forms follow the SMILES beside them. *: point of attachment. Asu = N[C@@H](CCCCCC(=O)O)C(=O)O; NHOH = ON*

The subject of assay [1] is B16/BL6 cells. Briefly: MHC class-I molecule expression promoting activity. Format: cell-based, mouse.
The subject of assay [2] is B16/BL6 cells. Briefly: Inhibitory effect on histone deacetylation in cells (AUT gel electrophoresis). Format: cell-based, mouse. The conditions noted are these: Example 1 added at 10 μM, trichostatin A at 1 μM; 6 hours; histone H4 bands. As to the method:
In a culture flask of 75 ml in capacity, 1.5×10^5 B16/BL6 cells were inoculated and preliminarily cultured for 4 days. Then, a given amount of a compound to be tested was added and subsequently cultured for 6 hours. Thereafter, cells were striped using 0.25% trypsin enzyme solution, washed once with PBS and stored temporarily at −80° C.
From this cell sample, histone was separated from chromatin and collected together with other proteins in a conventional manner. The resulting protein sample was subjected to AUTgel electrophoresis in an amount of 1 μg/lane. Said gel was stained with silver to detect bands separated by the migration.
The result on a control group in which no compound to be tested was added is also shown.

The subject of assay [3] is B16/BL6 cells. As to the kind of experiment: Inhibitory effect on cell proliferation (MTS, 48 hours). It is filed as cell-based, mouse. The conditions noted are these: 48 hours after addition; read-out: 50% inhibiting concentration. The source says: (§1) In order to verify the action of the cyclic tetrapeptide derivative according to the present invention in inhibiting cell proliferation in cancerized cells, the action on the proliferation of the aforementioned B16/BL6 cells was investigated. The evaluation of cell proliferation rates was done utilizing a commercially available measuring kit, specifically, from Promega under the trade name CellTiter 96 Aqueous Non-Radioactive Proliferation Assay Kit. In the measuring kit, the amount of products through reduction of a reagent tetrazolium compound (3-(4,5-dimethylthiazol-2-yl)-5-(3-carboxymethoxyphenyl)-2-(4-sulfophenyl)-2H-tetrazolium, inner salt; MTS) by viable animal cells is determined by detecting spectrophotometrically the color generated from the products. Since the amount of products is proportional to the amount of viable cells, this kit is utilized to evaluate the amount of viable cells.
(§2) According to the procedure of Test Example 1, B16/BL6 cells are inoculated in a 96 well microplate and cultured for 24 hours. Then, 10 μl of a solution of the source solution of a compound to be tested which has been diluted to a predetermined amount per well is added. Thereafter, culture is continued for additional 48 hours and 20 μl of a reagent solution in the aforementioned CellTiter 96 Aqueous Non-Radioactive Proliferation Assay Kit is then added. After incubation is continued at 37° C. for 1 hour, the amount of color generation is measured as an absorbance at 490 n musing a microplate reader.
(§3) The amount of cell proliferation of a group to which a compound to be tested is added is expressed in a relative value as compared to the standard cell proliferation (100%) in a control group to which no compound to be tested is added. For each compound tested, the amounts of cell proliferation were measured at different concentrations of addition and the dependence of the quantitative cell proliferation on the concentration of addition was investigated. From the results, a concentration of addition at which the amount of cell proliferation was inhibited by 50% relative to the amount of cell proliferation in the control group without addition was determined.

Assay [4] deals with colon cancer Colon26 cell line. As to the kind of experiment: Cell proliferation inhibition (72 hours). It is filed as cell-based, mouse. The settings on record: read-out: 50% proliferation inhibiting concentration Colon 26 (nM) mean.
Description: as §1, §2, §3
(§4) The test method was in accordance with the above-mentioned procedure, except that the period of incubation after the addition of a compound was 72 hours.
(§5) As illustrative examples, results are shown for an evaluation using mouse malignant melanoma B16/BL6 and B16 cell lines; leukemia L1210 cell line, colon cancer Colon26 cell line, and liver cancer MH134 cell line as cancer cells. For the cell proliferation inhibiting action of each compound tested for these cancer cells, 50% proliferation inhibiting concentrations are shown in Table 4.

Assay [5] concerns leukemia L1210 cell line. As to the kind of experiment: Cell proliferation inhibition (72 hours). Format: cell-based, mouse. The settings on record: read-out: 50% proliferation inhibiting concentration L1210 (nM) mean.
Description: as §1, §2, §3, §4, §5

For assay [6], the system named is liver cancer MH134 cell line. As to the kind of experiment: Cell proliferation inhibition (72 hours). Format: cell-based, mouse. The conditions noted are these: read-out: 50% proliferation inhibiting concentration MH134 (nM) mean.
Description: as §1, §2, §3, §4, §5

In assay [7] the test system is mouse malignant melanoma B16/BL6 cell line. It is filed as cell-based. The settings on record: 72 hours; read-out: 50% proliferation inhibiting concentration B16/BL6 (nM) mean.
Description: as §1
According to the procedure of Test Example 1, B16/BL6 cells are inoculated in a 96 well microplate and cultured for 24 hours. […] Thereafter, culture is continued for additional 48 hours and 20 μl of a reagent solution in the aforementioned CellTiter 96 Aqueous Non-Radioactive Proliferation Assay Kit is then added. After incubation is continued at 37° C. for 1 hour, the amount of color generation is measured as an absorbance at 490 n musing a microplate reader.
The amount of cell proliferation of a group to which a compound to be tested is added is expressed in a relative value as compared to the standard cell proliferation (100%) in a control group to which no compound to be tested is added. For each compound tested, the amounts of cell proliferation were measured at different concentrations of addition and the dependence of the quantitative cell proliferation on the concentration of addition was investigated.
as §4

Assay [8] relates to mouse malignant melanoma B16 cell line. Briefly: Cell proliferation inhibition (72 hours). It is filed as cell-based. The conditions noted are these: read-out: 50% proliferation inhibiting concentration B16 (nM) mean.
Description: as §1, §2, §3, §4, §5

In assay [9] the target is Mouse histone deacetylase. It is filed as biochemical. How it is done:
In an enzyme system using a radio-labelled acetylated histone as a substrate, histone deacetylase enzyme inhibiting activity was evaluated. The basic conditions were in accordance with the method of Yoshida et al. (J. Biol. Chem., 265, 17174-17179, 1990).
Mouse histone deacetylase to be used was partially purified from FM3A cells. Cells were suspended in HDA buffer (15 mM potassium phosphate, 5% glycerol, 0.2 mM EDTA, pH 7.5), homogenized and centrifuged (35000×g, 10 min) to collect the nuclei which in turn were homogenized in the same buffer containing 1 M (NH4)2SO4. After ultrasonic disruption and centrifugation, the concentration of (NH4)2SO4 in the supernatant was increased to 3.5 M to precipitate deacetylase enzyme proteins. This precipitate was redissolved in HDA buffer, dialyzed against HDA buffer, applied to DEAE-cellulose column and eluted in NaCl gradient. Active fractions were used as a histone deacetylase enzyme solution.
As a substrate, [^3H]acetyl histone was used. In a culture solution of FM3A cells in the presence of 5 mM sodium n-butyrate, [^3H]acetate was added, followed by incubation for 30 minutes to radio-label the histone. The histone was prepared in a conventional manner and used as a substrate solution.
An assay was performed by adding a compound to be tested at a given concentration while using a no-addition control group, and by incubating the substrate solution and the enzyme solution at 37° C. for 10 minutes (reaction volume, 100 μl). The enzyme reaction was stopped by adding 10 μl of concentrated hydrochloric acid and the excised [^3H]acetate was extracted with ethyl acetate for radioactivity measurement. The inhibiting activity was expressed by a concentration at which the enzyme activity in the control group was inhibited by 50% (50% inhibiting concentration).

Assay [10] concerns the target histone deacetylase. Briefly: Histone deacetylase enzyme inhibiting activity, synthetic peptide substrate. Format: biochemical, mouse. The settings on record: enzyme from B16/BL6 cells; [3H]acetylated histone H4 peptide; 37° C. 3 hours. In outline: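 Crude HDAC was partially purified from B16/BL6 cell nuclei by ammonium sulfate precipitation and gel filtration. Enzyme was incubated with [^3H]acetylated histone H4 N-terminal peptide and compound at 37° C. for 3 h. Released [^3H]acetate was ethyl acetate-extracted and counted, giving IC50 versus the no-compound control.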

In the case of `O=C(CCCCC[C@@H]1NC(=O)[C@H]2CCCN2C(=O)[C@H](Cc2ccccc2)NC(=O)[C@H](Cc2ccccc2)NC1=O)NO` [HDA-5, cyclo(-Asu(NHOH)-Phe-Phe-D-Pro-)] (cyclo([Asu](NHOH)FF[dP])), the “MHC class-I molecule expression promoting action” value in assay [1] (FIGS. 3 and 4, dependence on concentration of addition) is “exhibited MHC class-I molecule expression promoting action”. Also, the “Twice Promoting Concentration Cx2” value in assay [1] (concentration at which MHC class-I expression is twice that without addition, 72 hours) amounted to 135 nM. Moreover, the “conc. for 2-fold expression (nM) mean” value in assay [1] (mean of a plurality of assays, 72 hours) is 98.2 nM. The “inhibitory effect on histone deacetylation” value in assay [2] is given as “inhibits the deacetylation of histone”. Moreover, the IC50 in [3] amounted to 210 nM; in assay [4] it was 2160 nM; in [5], 500 nM; in [6] it was 1660 nM; in [7], 257 nM; in assay [8], 3370 nM. Moreover, the IC50 worked out at 2.18 nM in assay [9] and 6.03 nM in [10].
